Data from ChEMBL document CHEMBL3286186, “Design of α7 nicotinic acetylcholine receptor ligands in quinuclidine, tropane and quinazoline series. Chemistry, molecular modeling, radiochemistry, in vitro and in rats evaluations of a [(18)F] quinuclidine derivative” (Eur J Med Chem, 2014).

Assays:
[1] = molecular target: Neuronal acetylcholine receptor subunit alpha-7 (Rattus norvegicus, UniProt Q05941); assay: Displacement of [125I]-alpha-bungarotoxin from alpha7 nicotinic acetylcholine receptor in Wistar rat frontal cortex by gamma counting; assay type: tissue-based
Striatum = assay: Biodistribution in Wistar rat striatum at 5 +/- 2 MBq, iv after 60 mins by gamma counting in presence of alpha7 nAChR antagonist methyllycaconitine; assay type: organism-based; conditions: in vivo, 1 h
Hippocampus = assay: Biodistribution in Wistar rat hippocampus at 5 +/- 2 MBq, iv after 60 mins by gamma counting in presence of alpha7 nAChR antagonist methyllycaconitine; assay type: organism-based; conditions: in vivo, 1 h
Brain = assay: Biodistribution in Wistar rat brain at 5 +/- 2 MBq, iv after 60 mins by gamma counting; assay type: ADME, organism-based; conditions: in vivo, 1 h
Midbrain = assay: Biodistribution in Wistar rat midbrain at 5 +/- 2 MBq, iv after 60 mins by gamma counting in presence of alpha7 nAChR antagonist methyllycaconitine; assay type: organism-based, Brain; conditions: in vivo, 1 h
Cerebellum = assay: Biodistribution in Wistar rat cerebellum at 5 +/- 2 MBq, iv after 60 mins by gamma counting in presence of alpha7 nAChR antagonist methyllycaconitine; assay type: organism-based; conditions: in vivo, 1 h
Hypothalamus = assay: Biodistribution in Wistar rat hypothalamus at 5 +/- 2 MBq, iv after 60 mins by gamma counting in presence of alpha7 nAChR antagonist methyllycaconitine; assay type: organism-based; conditions: in vivo, 1 h
Cortex = assay: Biodistribution in Wistar rat cortex at 5 +/- 2 MBq, iv after 60 mins by gamma counting in presence of alpha7 nAChR antagonist methyllycaconitine; assay type: organism-based; conditions: in vivo, 1 h

Neuronal acetylcholine receptor subunit alpha-7, sequence (Q05941 whole entry): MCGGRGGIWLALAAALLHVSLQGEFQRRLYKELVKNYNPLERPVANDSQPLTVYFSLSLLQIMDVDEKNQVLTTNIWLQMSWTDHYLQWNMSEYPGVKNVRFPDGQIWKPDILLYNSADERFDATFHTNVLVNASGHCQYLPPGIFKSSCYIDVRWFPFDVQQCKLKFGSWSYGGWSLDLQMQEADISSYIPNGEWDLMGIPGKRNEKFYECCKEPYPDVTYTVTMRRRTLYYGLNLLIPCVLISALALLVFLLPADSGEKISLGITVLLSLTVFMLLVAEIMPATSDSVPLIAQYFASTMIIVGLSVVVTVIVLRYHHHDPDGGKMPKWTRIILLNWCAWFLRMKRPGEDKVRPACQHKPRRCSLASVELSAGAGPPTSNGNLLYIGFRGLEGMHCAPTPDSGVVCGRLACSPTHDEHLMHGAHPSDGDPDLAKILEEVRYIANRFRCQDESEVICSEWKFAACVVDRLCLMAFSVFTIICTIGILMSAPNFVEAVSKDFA

Row | Structure (SMILES) | Ki [1] [nM] | further results
1 | CN1[C@@H]2CC[C@H]1C[C@@H](NC(=O)c1ccc(Br)s1)C2 | 78 | 
2 | CN1[C@@H]2CC[C@H]1C[C@@H](NC(=O)c1ccc3sccc3c1)C2 | 108 | 
3 | CN1[C@@H]2CC[C@H]1C[C@@H](NC(=O)c1ccc(Cl)cc1)C2 | > 1000 | 
4 | CN1[C@@H]2CC[C@H]1C[C@@H](NC(=O)c1cccs1)C2 | > 1000 | 
5 | O=C(N[C@H]1CN2CCC1CC2)c1ccc([18F])cc1 |  | Drug uptake (Striatum): Not Active; Drug uptake (Hippocampus): Not Active; Drug uptake (Brain): Active; Drug uptake (Midbrain): Not Active; Drug uptake (Cerebellum): Not Active; Drug uptake (Hypothalamus): Not Active; Drug uptake (Cortex): Not Active
6 | CN1[C@@H]2CC[C@H]1C[C@@H](NC(=O)c1ccc(-c3ccco3)s1)C2 | 14 | 
7 | CN1[C@@H]2CC[C@H]1C[C@@H](NC(=O)c1ccc(-c3cccs3)s1)C2 | 12 | 
8 | CN1[C@@H]2CC[C@H]1C[C@@H](NC(=O)c1ccc3occc3c1)C2 | 133 | 
